Data: ChEMBL document CHEMBL4184110 (Bioorg Med Chem Lett, 2018)

Assays:
[1] = biological target: T1, Vitamin D3 receptor (Homo sapiens, UniProt P11473); assay: Agonist activity at VDR-LBD (unknown origin) assessed as recruitment of alexa fluor 647-labeled SRC2-3 after 30 mins by fluorescence polarization assay
T1 sequence (P11473 whole entry): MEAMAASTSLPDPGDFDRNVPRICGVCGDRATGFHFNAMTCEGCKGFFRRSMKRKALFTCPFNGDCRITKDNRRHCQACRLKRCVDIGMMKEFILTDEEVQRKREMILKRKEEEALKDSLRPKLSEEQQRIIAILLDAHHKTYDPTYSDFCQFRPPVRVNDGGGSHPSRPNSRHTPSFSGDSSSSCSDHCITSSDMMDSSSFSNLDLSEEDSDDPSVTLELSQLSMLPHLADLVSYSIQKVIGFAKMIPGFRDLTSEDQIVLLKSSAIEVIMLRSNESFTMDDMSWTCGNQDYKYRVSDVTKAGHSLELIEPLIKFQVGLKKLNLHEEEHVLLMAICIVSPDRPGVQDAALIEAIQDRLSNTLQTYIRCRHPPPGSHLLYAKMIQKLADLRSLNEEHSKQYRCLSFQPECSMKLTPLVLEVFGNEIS

[2] = biological target: T2, Peroxisome proliferator-activated receptor alpha (Homo sapiens, UniProt Q07869); assay: Antagonist activity at CMV-fused PPARalpha-LBD-GAL4-DBD (unknown origin) expressed in HEK293T cells assessed as inhibition of GW7647-induced receptor transactivation after 16 hrs by bright-Glo luciferase reporter gene assay; type: cell-based
T2 sequence (Q07869 whole entry): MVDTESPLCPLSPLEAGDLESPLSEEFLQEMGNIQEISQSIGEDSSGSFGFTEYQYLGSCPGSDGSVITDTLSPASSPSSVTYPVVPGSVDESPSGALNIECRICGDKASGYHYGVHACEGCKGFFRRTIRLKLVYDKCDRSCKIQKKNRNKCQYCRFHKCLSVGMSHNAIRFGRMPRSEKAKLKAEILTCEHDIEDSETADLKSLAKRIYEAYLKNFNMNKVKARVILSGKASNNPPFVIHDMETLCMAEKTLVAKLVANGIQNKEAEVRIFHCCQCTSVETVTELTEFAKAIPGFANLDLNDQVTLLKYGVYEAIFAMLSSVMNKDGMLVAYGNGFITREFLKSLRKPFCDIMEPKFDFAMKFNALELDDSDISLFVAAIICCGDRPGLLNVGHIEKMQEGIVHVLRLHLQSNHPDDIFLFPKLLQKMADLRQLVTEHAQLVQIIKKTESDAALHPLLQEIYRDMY

[3] = biological target: T1, Vitamin D3 receptor; assay: Antagonist activity at VP16-fused VDR-LBD (unknown origin) expressed in HEK293T cells assessed as inhibition of ligand-induced GAL4-fused SRC1 coactivator recruitment by two-hybrid luciferase reporter gene assay; type: cell-based
[4] = biological target: T3, Peroxisome proliferator-activated receptor delta (Homo sapiens, UniProt Q03181); assay: Antagonist activity at CMV-fused PPARdelta-LBD-GAL4-DBD (unknown origin) expressed in HEK293T cells assessed as inhibition of GW0742-induced receptor transactivation after 16 hrs by bright-Glo luciferase reporter gene assay; type: cell-based
T3 sequence (Q03181 whole entry): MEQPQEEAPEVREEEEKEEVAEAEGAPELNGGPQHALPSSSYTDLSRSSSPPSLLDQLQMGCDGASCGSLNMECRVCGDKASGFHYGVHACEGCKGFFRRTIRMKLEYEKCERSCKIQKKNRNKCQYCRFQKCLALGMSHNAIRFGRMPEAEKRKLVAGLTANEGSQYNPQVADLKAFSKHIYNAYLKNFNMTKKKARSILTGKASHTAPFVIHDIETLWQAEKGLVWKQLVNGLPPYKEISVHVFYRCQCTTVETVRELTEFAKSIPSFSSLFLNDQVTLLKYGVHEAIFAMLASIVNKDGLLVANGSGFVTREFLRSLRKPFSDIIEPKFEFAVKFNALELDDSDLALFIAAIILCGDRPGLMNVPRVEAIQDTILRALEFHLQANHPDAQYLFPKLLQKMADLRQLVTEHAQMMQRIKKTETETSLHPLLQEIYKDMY

[5] = biological target: Estrogen receptor beta (Homo sapiens, UniProt Q92731); assay: Antagonist activity at CMV-fused ERbeta-LBD-GAL4-DBD (unknown origin) expressed in HEK293T cells assessed as inhibition of estradiol-induced receptor transactivation after 16 hrs by bright-Glo luciferase reporter gene assay; type: cell-based
Chain of Estrogen receptor beta (Q92731 whole entry, the tested form may be a part): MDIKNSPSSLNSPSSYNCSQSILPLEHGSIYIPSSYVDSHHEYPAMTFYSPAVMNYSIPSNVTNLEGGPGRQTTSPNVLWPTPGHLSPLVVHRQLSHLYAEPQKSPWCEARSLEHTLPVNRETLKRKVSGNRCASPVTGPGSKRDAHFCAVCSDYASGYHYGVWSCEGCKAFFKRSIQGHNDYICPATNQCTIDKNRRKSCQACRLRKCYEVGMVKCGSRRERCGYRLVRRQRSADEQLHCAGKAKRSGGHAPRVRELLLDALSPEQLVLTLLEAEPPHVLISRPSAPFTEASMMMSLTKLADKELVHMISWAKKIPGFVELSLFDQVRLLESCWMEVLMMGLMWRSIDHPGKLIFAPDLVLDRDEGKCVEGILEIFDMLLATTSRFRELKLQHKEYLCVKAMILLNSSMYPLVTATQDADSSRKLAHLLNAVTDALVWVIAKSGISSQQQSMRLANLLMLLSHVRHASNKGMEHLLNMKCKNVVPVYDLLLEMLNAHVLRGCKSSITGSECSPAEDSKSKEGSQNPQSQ

[6] = biological target: T3, Peroxisome proliferator-activated receptor delta; assay: Transactivation of CMV-fused PPARdelta-LBD-GAL4-DBD (unknown origin) expressed in HEK293T cells by luciferase reporter gene assay; type: cell-based
[7] = biological target: T4, Peroxisome proliferator-activated receptor gamma (Homo sapiens, UniProt P37231); assay: Antagonist activity at CMV-fused PPARgamma-LBD-GAL4-DBD (unknown origin) expressed in HEK293T cells assessed as inhibition of rosiglitazone-induced receptor transactivation after 16 hrs by bright-Glo luciferase reporter gene assay; type: cell-based
T4 sequence (P37231 whole entry): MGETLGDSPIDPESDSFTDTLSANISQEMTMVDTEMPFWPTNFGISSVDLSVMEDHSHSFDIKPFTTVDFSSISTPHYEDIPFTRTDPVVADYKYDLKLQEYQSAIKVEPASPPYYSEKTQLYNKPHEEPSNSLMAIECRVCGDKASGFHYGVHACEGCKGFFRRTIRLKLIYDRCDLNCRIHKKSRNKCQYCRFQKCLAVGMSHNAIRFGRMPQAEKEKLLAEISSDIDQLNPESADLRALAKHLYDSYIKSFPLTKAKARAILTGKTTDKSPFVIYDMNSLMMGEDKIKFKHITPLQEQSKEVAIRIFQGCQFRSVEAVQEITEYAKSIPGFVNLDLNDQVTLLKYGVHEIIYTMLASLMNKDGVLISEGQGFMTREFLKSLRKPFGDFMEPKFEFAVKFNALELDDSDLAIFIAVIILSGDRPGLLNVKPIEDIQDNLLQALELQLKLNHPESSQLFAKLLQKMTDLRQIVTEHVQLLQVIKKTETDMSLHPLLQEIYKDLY

[8] = biological target: T5, Thyroid hormone receptor alpha (Homo sapiens, UniProt P10827); assay: Antagonist activity at CMV-fused TRalpha-LBD-GAL4-DBD (unknown origin) expressed in HEK293T cells assessed as inhibition of T3-induced receptor transactivation after 16 hrs by bright-Glo luciferase reporter gene assay; type: cell-based
T5 sequence (P10827 whole entry): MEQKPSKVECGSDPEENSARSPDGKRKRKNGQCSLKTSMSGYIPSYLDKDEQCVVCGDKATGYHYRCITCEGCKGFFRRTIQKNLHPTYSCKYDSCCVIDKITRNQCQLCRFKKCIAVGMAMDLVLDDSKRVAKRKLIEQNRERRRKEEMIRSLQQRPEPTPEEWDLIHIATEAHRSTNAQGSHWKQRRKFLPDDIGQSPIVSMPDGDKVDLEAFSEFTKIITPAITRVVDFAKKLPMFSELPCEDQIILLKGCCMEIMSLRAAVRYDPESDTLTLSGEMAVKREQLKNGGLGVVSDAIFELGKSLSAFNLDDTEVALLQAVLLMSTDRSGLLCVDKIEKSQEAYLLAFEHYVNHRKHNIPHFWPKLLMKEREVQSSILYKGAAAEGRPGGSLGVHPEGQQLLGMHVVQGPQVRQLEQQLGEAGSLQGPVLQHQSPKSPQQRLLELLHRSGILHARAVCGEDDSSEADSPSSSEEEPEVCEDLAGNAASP

EC50 [1] | IC50 [2] | IC50 [3] | IC50 [4] | IC50 [5] | EC50 [6] | IC50 [7] | IC50 [8] | SMILES
Not Active | 3.5 µM | 8.89 µM | 10.9 µM | 5.9 µM | Not Active | 7.6 µM | 5.4 µM | COC(=O)c1ccc(OCc2oc(-c3cccc(OC)c3)nc2C)cc1
Not Active | 1.9 µM | 13.9 µM | 11.3 µM | 7.4 µM | Not Active | 6.7 µM | 4.2 µM | COC(=O)Cc1ccc(OCc2oc(-c3cccc(OC)c3)nc2C)cc1
Not Active | 8 µM | 11.1 µM | 6.6 µM | 10 µM | Not Active | 6.3 µM | 8.4 µM | COC(=O)Cc1ccc(OCc2oc(-c3ccccc3OC)nc2C)cc1
Not Active | 6.6 µM | 7.33 µM | 10.9 µM | 23.6 µM | Not Active | 7.6 µM | 10.1 µM | COC(=O)c1cccc(OCc2oc(-c3ccccc3OC)nc2C)c1
